Legend:
HIV-1 [1] = assay: Antiviral activity: HIV antigen concentration in HIV-1 infected MT4 cells; format: cell-based; conditions: MT4 cells (human CD4 cell line), 1, 10 and 100 μM, after 72 hours; FIG. 1
Method: (§1) 40H—OPB was added to cultures of growing MT4 cells (a human CD4 cell line). HIV-1, stored in the culture medium at −75° C. was thawed and added in an amount which infected about 1 in 7 cells in each culture. The virus was absorbed to the cells for 2.3 hours at ambient temperature whereafter the cultures were centrifuged at 1200 rpm, the medium was removed, the cells were suspended in fresh growth medium and 40H—OPB was added to concentrations of 1, 10 and 100 μM (diluted in medium from a stock solution of 20 mM in DMSO). After 72 hours the HIV antigen concentration was determined using Abbott's test. By way of comparison phenbutazone (PB) was tested analogously.

HIV-1 [2] = assay: Combination antiviral effect in HIV-1 infected MT4 cells; format: cell-based; conditions: with AZT, Indinavir, Nevirapin or ddI, FIGS. 2-5
Method: as §1
Cell culture experiments were carried out as in Example 12, but in place of 40H—OPB (0-100 μM) was added:
i) 40H—OPB ([…]) with AZT (0-1 μM)
iii) 40H—OPB (0-100 μM) with Nevirapin (0-10 μM)

mice = assay: Mouse toxicity; format: in vivo
Method: 20 g mice were given single doses of 40H—OPB (20 mM in DMSO) intraperitoneally. […] Furthermore, injection of 40H—OPB could be increased to 2000 mg/kg (corresponding to 20 mM in the extracellular fluid) before the mice started to die (6 out of 10 died at 2000 mg/kg).

## CCCCC1(O)C(=O)N(c2ccccc2)N(c2ccc(O)cc2)C1=O (stereo not drawn) [40H—OPB, 4-(1-Butyl)-4-hydroxy-1-(4-hydroxyphenyl)-2-phenyl-3,5-pyrazolidinedione]
HIV-1 [1]
  inhibition of virus production (HIV antigen concentration, Abbott's test): inhibition of virus production by 40H—OPB at concentrations above the lowest tested
HIV-1 [2]
  anti-HIV effect in combination with other anti-viral agents: enhanced anti-HIV effect
mice; mice, corresponding to 2000 mg/kg
  lethal dose expressed as concentration in the extracellular fluid: 20 mM
mice; mice, single dose intraperitoneally
  dose reached before the mice started to die (lethal dose): 2000 mg/kg
mice; mouse, in vivo, 2000 mg/kg
  factor by which concentrations that effectively inhibit HIV replication in cell cultures are lower than the lethal dose in mice: up to 200000 times
mice; mouse, in vivo, ip, 2000 mg/kg
  mice that died: 6 out of 10

From patent US20040152751A1, “Pyrazolidinol compounds” (priority 1999, published 2004)
